Legend:
[1] = tested on: CD1d^+ target cells; experiment: Luciferase-based killing assay, glycolipid- or DMSO-pulsed CD1d+ target cells; type: cell-based, human; details: effector thawed iNKT47 CD19 CAR (allo), FIG. 13B
Experimental: Luciferase-Based Killing Assay: αGalCer or DMSO pulsed target cells were prepared by incubating target cells (2×10^5/mL) at 37° C., 5% CO2 with αGalCer (200 ng/ml) or DMSO (1:500 of 10% stock) overnight and used for cytotoxicity assays after spinning to remove medium containing αGalCer or DMSO. Luciferase-expressing target cells (1×104 in 50 μL per well) were incubated with 50 μL of INKT cells per well at different effector T cell: target cell (E/T) ratios in quadruplicate in a 96-well flat-bottom white polystyrene microplate (Corning, Cat No. 3912). A spontaneous or maximal killing was set up by adding 50 μL per well of culture medium or 1% Triton X-100 instead of INKT cells, respectively. After a standard 4 h or 16 h (as indicated) incubation at 37° C., 10 μL of D-luciferin (1:10 of 30 mg/ml stock) or 50 μL (1:50 of 30 mg/mL) (Caliper Life Sciences, Cat No. XR-1001) was added to each well. Luciferase activity was measured using a Synergy 2 microplate reader (BioTek). Percent specific lysis was calculated as follows: […]

[2] = tested on: CD1d^+ target cells; experiment: Cytokine release assay (IFN-γ ELISA), glycolipid-pulsed CD1d+ target cells; type: cell-based, human; details: pulsed MV4:11-hfflucN; 3-month cultured INKT47 CD19 CAR (allo) and iNKT48 CD19 CAR/GFP (allo); FIG. 13C
Experimental: Cytokine Release Assays: Cytokine release assays were performed by co-culturing 1-2×10^5 T cells with 2×10^4 target cells per well in duplicate in 96-well flat-bottom plates. After 24 h, supernatants were assayed using a LEGEND MAX Human IFN-γ ELISA kit (BioLegend, Cat No. 430107).

In the case of `CCCCCCCCCCCCCC[C@@H](O)[C@@H](O)[C@H](CO[C@H]1O[C@H](CO)[C@H](O)[C@H](O)[C@H]1O)NC(=O)CCCCCCCCCCc1ccc(F)cc1` [7DW8-5], the “potency relative to αGalCer in sensitizing CD1d+ target cells” value ([1]; Molm13) is reported as “at least 16 fold”, the “potency relative to αGalCer in sensitizing CD1d+ target cells” value ([1]; THP1) is reported as ≥ 64 fold and the “potency in stimulating iNKT cells to produce IFN-γ” value [2] is reported as “more potent than αGalCer”.

Source: patent US20250170240A1, “MODIFIED INVARIANT NATURAL KILLER T CELLS EXPRESSING A CHIMERIC ANTIGEN RECEPTOR AND USES THEREOF” (Tinkeso Therapeutics, Inc., priority 2022, published 2025)
